From patent US5114843A, “Humoral hypercalcemic factor antagonists” (Merck & Co., Inc., priority 1991, dated 1992)

Biological target: T1, Bovine renal cortical plasma membranes (Bos taurus, UniProt Q1LZF7)
T1 construct: from tissue; host or cells: bovine renal cortex plasma membranes
T1 sequence (Q1LZF7 29-589): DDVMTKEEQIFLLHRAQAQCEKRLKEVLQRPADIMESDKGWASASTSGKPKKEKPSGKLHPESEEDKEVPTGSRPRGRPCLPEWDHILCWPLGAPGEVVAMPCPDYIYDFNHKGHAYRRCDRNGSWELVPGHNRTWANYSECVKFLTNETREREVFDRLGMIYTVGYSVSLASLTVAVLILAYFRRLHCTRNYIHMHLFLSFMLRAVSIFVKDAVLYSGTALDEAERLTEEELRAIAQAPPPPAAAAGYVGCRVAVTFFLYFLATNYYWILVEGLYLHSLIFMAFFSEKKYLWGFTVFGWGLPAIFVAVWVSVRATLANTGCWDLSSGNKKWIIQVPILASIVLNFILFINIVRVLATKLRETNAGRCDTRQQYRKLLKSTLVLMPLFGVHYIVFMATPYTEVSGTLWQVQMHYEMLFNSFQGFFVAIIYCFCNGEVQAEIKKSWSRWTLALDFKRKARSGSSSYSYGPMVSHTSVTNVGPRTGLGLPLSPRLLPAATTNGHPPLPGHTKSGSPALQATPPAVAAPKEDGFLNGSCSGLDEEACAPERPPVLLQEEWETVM
Assay: HCF binding (receptor) assay with [Nle8,18,(125I)-Tyr34]bPTH(1-34)NH2 radioligand
Settings: radioligand [Nle8,18,(125I)-Tyr34]bPTH(1-34)NH2, 30 min at 21° C
Description: HCF analogues were analysed in a new receptor assay (Goldman et al., Endocrinol. (1988) 123: 1468-1475) which modified the assay reported in Rosenblatt et al., Endocrin. 107: 545-550 (1980). The binding assay used [Nle^8,18 (^125 I)-Tyr^34 ]bPTH (1-34)NH2 which was purified by HPLC (Novapak C18, 32-35% CH3 CN in 0.1% TFA) and was stored as aliquots in 25 mM TrisHCl/1%BSA at -70° C. Bovine renal cortical plasma membranes were incubated with radioligand (25,000 cpm) in the absence or presence of HCF analogues in a Tris-containing buffer (250 μl) for 30 min. at 21° C. Once equilibrium was reached, bound and free radioligand were separated by centrifugation.
High specific binding (85%) to bovine renal cortical membranes was obtained consistently.

## CC[C@H](C)[C@H](NC(=O)[C@H](CC(C)C)NC(=O)[C@H](Cc1c[nH]cn1)NC(=O)[C@H](Cc1c[nH]cn1)NC(=O)[C@H](CC(C)C)NC(=O)[C@H](Cc1ccccc1)NC(=O)[C@H](Cc1ccccc1)NC(=O)[C@H](CCCNC(=N)N)NC(=O)[C@H](CCCNC(=N)N)NC(=O)[C@H](CCCNC(=N)N)NC(=O)[C@H](CC(C)C)NC(=O)[C@H](CC(=O)O)NC(=O)[C@H](CCC(N)=O)NC(=O)[C@@H](NC(=O)[C@@H](N)CO)[C@@H](C)CC)C(=O)N[C@@H](C)C(=O)N[C@@H](CCC(=O)O)C(=O)N[C@H](C(=O)N[C@@H](Cc1c[nH]cn1)C(=O)N[C@H](C(=O)N[C@@H](C)C(N)=O)[C@@H](C)O)[C@@H](C)CC [hHCF(14-34)NH2]
  Ki: 1.4 ± 0.083 µM
